According to patent US20240197839A1, “Recombinant Human Acid Alpha-Glucosidase and Uses Thereof” (Amicus Therapeutics, Inc., priority 2021, published 2024):

Assays:
[1] = system: subjects with late-onset Pompe disease (LOPD); details: cited from earlier work
[2] = system: adult subjects with late-onset Pompe disease (LOPD); assay: ATB200-03 (PROPEL): creatine kinase (CK) biomarker of muscle injury; assay type: in vivo, human; details: after 52 weeks, overall population (p<0.001)
Source text: (§1) The ATB200-03 trial was a phase 3 double-blind, randomized, multicenter, international study of ATB200/AT2221 in adult subjects with late-onset Pompe disease (LOPD) who had received enzyme replacement therapy with alglucosidase alfa (i.e., ERT-experienced) or who had never received ERT (i.e., ERT naïve), compared with alglucosidase alfa/placebo.
(§2) Pharmacodynamic assessments included measurement of biomarkers of muscle injury (creatine kinase (CK) and disease substrate (urinary hexose tetrasaccharide (Hex4)). Sparse blood samples were collected for determination of total GAA protein levels and AT2221 concentrations in plasma for a population PK analysis in ERT-experienced subjects. Serial blood sampling for characterization of the PK profile of total GAA protein and AT2221 were done in ERT-naïve subjects.
(§3) Pharmacodynamic endpoints were as follows: • change from baseline to Week 52 in serum CK level • change from baseline to Week 52 in urinary Hex4 level

[3] = system: Gaa KO mice; assay: muscle biomarker analysis (LAMP1, LC3, dysferlin) in Gaa KO mice; assay type: in vivo; details: FIG. 15B
Protocol: The therapeutic effects of ATB200 and AT2221 were evaluated and compared against those of Alglucosidase alfa in Gaa KO mice. For the study, male Gaa KO (3- to 4-month old) and age-matched wild-type (WT) mice were used. Alglucosidase alfa was administered via bolus tail vein intravenous (IV) injection. In the co-administration regimen, AT2221 was administered via oral gavage (PO) 30 minutes prior to the IV injection of ATB200. Treatment was given biweekly. Treated mice were sacrificed after 14 days from the last administration and various tissues were collected for further analysis. Table 7 summarizes the study design:
Tissue samples were also analyzed for biomarker changes following the methods discussed in: Khanna R, et al. (2012), “The pharmacological chaperone AT2220 increases recombinant human acid α-glucosidase uptake and glycogen reduction in a mouse model of Pompe disease,” Plos One 7(7): e40776; and Khanna, R et al. (2014), “The Pharmacological Chaperone AT2220 Increases the Specific Activity and Lysosomal Delivery of Mutant Acid α-Glucosidase, and Promotes Glycogen Reduction in a Transgenic Mouse Model of Pompe Disease,” PLoS ONE 9(7): e102092.

[4] = system: adult subjects with late-onset Pompe disease (LOPD); assay: ATB200-03 (PROPEL): Gait, Stair, Gower, Chair (GSGC) test; assay type: in vivo, human; details: overall population, 52 weeks (p<0.05)
Source text: as §1
(§4) Efficacy assessments (i.e., functional assessments) included evaluation of ambulatory function (6MWT), motor function tests (Gait, Stair, Gower, and Chair maneuver (GSGC) test and Timed Up and Go (TUG) test), muscle strength (manual muscle testing and quantitative muscle testing), and pulmonary function tests (FVC, SVC, MIP, MEP, and SNIP). Patient reported outcomes (Rasch-built Pompe-specific Activity (R Pact) Scale, EuroQol 5 Dimensions 5 Levels Instrument (EQ-5D-5L), Patient-Reported Outcomes Measurement Information System (PROMIS®) instruments for physical function, fatigue, dyspnea, and upper extremity, and Subject's Global Impression of Change) were recorded. The Physician's Global Impression of Change were also performed.
Key secondary efficacy endpoints in a pre-specified hierarchical order of importance were as follows. […]

[5] = system: adult subjects with late-onset Pompe disease (LOPD); assay: ATB200-03 (PROPEL): safety assessments; assay type: in vivo, human; details: 52-week treatment
Source text: Safety assessments included monitoring of adverse events (AEs), including infusion associated reactions (IARs), clinical laboratory tests (chemistry, hematology, and urinalysis), vital signs, physical examinations including weight, electrocardiograms (ECGs), and immunogenicity. Concomitant medications and nondrug therapies were also be recorded.
The safety profile of ATB200/AT2221 was characterized using incidence of treatment emergent adverse events (TEAEs), serious adverse events (SAEs), and AEs leading to discontinuation of study drug, frequency and severity of immediate and late IARs, and any abnormalities noted in other safety assessments. The impact of immunogenicity to ATB200 and alglucosidase alfa on safety and efficacy was also assessed.
Safety Analyses. Safety data was summarized using counts and percentages for categorical data and descriptive statistics (mean, standard deviation, median, minimum, maximum) for continuous data.

[6] = system: adult subjects with late-onset Pompe disease (LOPD); assay: ATB200-03 (PROPEL) phase 3 trial: 6-minute walk test; assay type: in vivo, human
Source text: as §1
Eligible subjects were randomly assigned in a 2:1 ratio to receive ATB200/AT2221 or alglucosidase alfa/placebo and stratified by ERT status (ERT-experienced, ERT-naïve) and baseline 6-minute walk distance (6MWD) (75 to <150 meters, 150 to <400 meters, ≥400 meters).
as §4
The primary efficacy endpoint was the change from baseline to Week 52 in 6MWD. The primary endpoint was tested for superiority of ATB200/AT2221 vs Alglucosidase alfa/placebo, using mixed-effect model for repeated measures (MMRM) and pre-specified nonparametric test in case of violation of normality.
Efficacy Analyses. The primary efficacy endpoint (i.e., change from baseline to Week 52 in 6MWD) was analyzed using a parametric analysis of covariance (ANCOVA) model to compare between the new treatment and the control. This model would typically adjust for baseline 6MWD (as a continuous covariate), and the 2 factors used to stratify randomization: ERT status (ERT naïve vs. ERT-experienced) and baseline 6MWD (75 to <150 meters, 150 to <400 meters, ≥400 meters). However, the baseline 6MWD could not be used in the model twice (both as a continuous and a categorical variable) due to the expected high point biserial correlation between them. Thus, the 6MWD continuous variable remained in the model but the categorical 6MWD was removed. The ANCOVA model then had terms for treatment, baseline 6MWD (continuous), and ERT status (categorical).
(§5) PROPEL was a 52-week, double-blind randomized global study designed to assess the efficacy, safety and tolerability of AT-GAA compared to the current standard of care, alglucosidase alfa, an enzyme replacement therapy (ERT). The study enrolled 123 adult Pompe patients who still had the ability to walk and to breathe without mechanical ventilation and was conducted at 62 clinical sites in 24 countries on 5 continents. It was the largest controlled clinical study ever conducted in a lysosomal disorder.

[7] = system: adult subjects with late-onset Pompe disease (LOPD); assay: ATB200-03 (PROPEL) phase 3 trial: sitting forced vital capacity; assay type: in vivo, human
Source text: as §1, §4
Key secondary efficacy endpoints in a pre-specified hierarchical order of importance were as follows. These secondary endpoints were analyzed using analysis of covariance (ANCOVA) model with last observation carried forward (ITT LOCF). • change from baseline to Week 52 in sitting FVC (% predicted) • change from baseline to Week 52 in the manual muscle test score for the lower extremities • change from baseline to Week 52 in the total score for the PROMIS—physical function • change from baseline to Week 52 in the total score for the PROMIS—fatigue • change from baseline to Week 52 in GSGC total score
as §5

[8] = system: Gaa KO mice; assay: single fiber analysis (LAMP1/LC3 co-immunofluorescence, white gastrocnemius); assay type: in vivo; details: Gaa KO mice
Source text: FIG. 17 depicts co-immunofluorescent staining of LAMP1 (green) (see for example, “B”) and LC3 (red) (see, for example, “A”) in single fibers isolated from the white gastrocnemius of Gaa KO mice treated with a vehicle, alglucosidase alfa, or ATB200. “C” depicts clearance of autophagic debris and absence of enlarged lysosome. A minimum of 30 fibers were examined from each animal.
As a result, a significant portion of muscle fibers analyzed (36-60%) from ATB200-treated mice appeared normal or near-normal.

[9] = system: adult subjects with late-onset Pompe disease (LOPD); assay: ATB200-03 (PROPEL): urinary hexose tetrasaccharide (Hex4) biomarker; assay type: in vivo, human; details: after 52 weeks, combined ERT switch and ERT naïve population (p<0.001)
Source text: as §1, §2, §3

[10] = ERT switch (ERT-experienced) population (n=95)
[11] = ERT treatment naïve population (n=27), listed as Alglucosidase alfa
[12] = overall ERT switch and ERT naïve population (n=122)

[199-arginine,223-histidine]prepro-α-glucosidase (human) [alglucosidase alfa]
subjects who did not show an initial improvement during treatment ([1]; 368 LOPD subjects from published studies): > 30% | duration of improvements in initial responders ([1]; longer-term studies): approximately 2 years | mean change in CK [2]: +15.6% | LC3 II level by western blot (autophagy) [3]: modest | GSGC scores [4]: worsening | patients who discontinued treatment due to an adverse event [5]: 2.6% | Injection associated reactions (IARs) reported ([5]; share of participants): 26% | 6MWD CFBL at Week 52 [6, 10]: 0.0 m | 6MWD CFBL at Week 52 ([6]; ERT treatment naïve population (n=27)): 38 m | 6MWD CFBL at Week 52 [6, 11]: +38.3 (11.1) m | 6MWD CFBL at Week 52 [6, 12]: 7 m | 6MWD CFBL at Week 52 ([6]; overall ERT switch and ERT naïve population (n=122), listed as Alglucosidase alfa): +7.2 m | FVC CFBL at Week 52 [7, 10]: −4.0 (0.9) % predicted | FVC CFBL at Week 52 [7, 11]: −3.6 (1.8) % predicted | FVC CFBL at Week 52 ([7]; ERT treatment naïve population (n=27), listed as alglucosidase alpha): −3.6 % predicted | absolute decline in percent-predicted FVC ([7]; after 52 weeks, combined population): 4.0% | absolute decline in percent-predicted FVC ([7]; over the course of the year, ERT switch patients): 4.0% | FVC CFBL at Week 52 [7, 12]: −4.0 (0.8) % predicted | Fibers with Autophagy Buildup [8]: >90% | Fibers with Normal or Near-normal Appearance [8]: <10% | mean change in urine Hex-4 [9]: +11.0%
